Assay [1] concerns esophageal injury in reflux esophagitis models. The experiment in a line: Inhibitory effects against esophageal injury in reflux esophagitis models. In kind it is in vivo, Sprague Dawley (SD) rats. The following applies: Rattus norvegicus; percent inhibition of esophageal injury area vs control; rats, 2 mg/kg oral 1 hour before ligation, measured 6 hours after ligation; read-out: GERD (rat/mpk). How it is done:
Test Example 3: Inhibitory Effects against Esophageal Injury in Reflux Esophagitis Models The inhibitory effects of the compounds of the present disclosure against esophageal injury in reflux esophagitis models were evaluated according to the method of Nakamura [Nakamura K, et al., Effects of sodium polyacrylate (PANa) on acute esophagitis by gastric juice in rats, Jpn J Pharmacology, 1982, 32, 445-56]. Male Sprague Dawley (SD) rats (weighing 180-210 g) were divided into X groups (n=6) and fasted without water for 24 hours. Then, the control group was administered orally with only 10% DMSO, 10% Cremophor EL and 80% water, and the other groups were administered orally with 2 mg/kg/2 ml of each test compound together with 10% DMSO, 10% Cremophor EL and 80% water. At 1 hour after administration of the excipients and each compound, the abdominal cavity of each rate was incised under isoflurane anesthesia, and the pylorus was ligated, and the boundary between the anterior portion and the body was also ligated. At 6 hours after ligation, the test animals were euthanized, and the esophagus ranging from the thyroid to the cardiac portion was carefully extracted. The extracted esophagus was incised in a longitudinal direction and spread so as to expose the mucosa and was then fixed, after which the area of esophageal injury was measured. Percent (%) inhibitory activity of test compounds={(total esophageal injury area of control group−esophageal injury area of group treated with test compound)/total esophageal injury area of control group}×100.

Assay [2] concerns the target T1, proton pump (H+/K+-ATPase), porcine gastric vesicles (Sus scrofa, UniProt P19156).
T1 construct: reaction buffer (50 mmol/L Tris-Hepes buffer, pH 6.4) containing porcine gastric vesicles; from tissue; host or cells: porcine gastric mucosa (gastric vesicles prepared by centrifugation)
The assay can be described thus: Inhibitory effects against proton pump (H+/K+-ATPase) activity, malachite green phosphate assay. The conditions noted are these: pH 6.4, 37° C., K+-dependent activity. In kind it is biochemical. The method, then: Test Example 1: Preparation of Gastric Vesicles
Gastric vesicles used in the experiment were prepared by separation from porcine gastric mucosa according to a centrifugation method [Saccomani G, et al., A Nonelectrogenic H^+ Pump in Plasma Membranes of Hog Stomach, J Biol Chem., 1976, 251 (23), 7690-8]. Next, the protein content of the gastric vesicles was quantified using a bicinchoninic acid kit [Smith P K, et al., Measurement of protein using bicinchoninic acid, Anal Biochem., 1985, 150 (1), 76-85)].
Test Example 2: Measurement of Inhibitory Effects Against Proton Pump (H^+/K^+-ATPase) Activity
The inhibitory effects of the compounds against proton pump activity were calculated based on the pump activity determined in the presence of K^+ ions excluding the pump activity determined in the absence of K^+ ions. The inhibitory effects against proton pump activity were measured in 96-well plates, and all reactions were performed with a reaction volume of […] at 37° C. Specifically, 10 μm of valinomycin and each concentration of each compound were pre-incubated in a reaction buffer (50 mmol/L Tris-Hepes buffer, pH 6.4) containing porcine gastric vesicles for 15 minutes. For negative and positive control groups, 1% DMSO was added to buffer, and for test groups, 1% DMSO and a dilution of each concentration of each compound were added. Next, 0.2 mmol/L of adenosine triphosphate (ATP) was added to the reaction buffer and incubated at 37° C. for 40 minutes. After completion of the incubation, a malachite green solution was added to the reaction buffer and incubated for 30 minutes, and the amount of inorganic phosphate in the reaction buffer was measured by colorimetry using a malachite green phosphate assay Kit (Bioassay Systems). For colorimetry, the OD (optical density) at 620 nm was measured using a microplate reader [Synergy H4, hybrid multimode microplate reader, BioTek]. The percent inhibition of proton pump (H^+/K^+-ATPase) was determined based on the OD value of the control group and the OD values of various concentrations of the test compounds, and the IC50 of each test compound was calculated using the Logistic 4-parameter function of Sigmaplot 8.0 program.

The test system of assay [3] is histamine-stimulated gastric acid secretion. The experiment in a line: Inhibitory effects against histamine-stimulated gastric acid secretion in pylorus-ligated rats (Shay's rat models). It counts as in vivo, Sprague-Dawley (SD) rats. The conditions noted are these: percent inhibition of total acid output vs control, 2 mg/kg oral 1 hour before pylorus ligation, histamine 30 mg/kg s.c., 3 hours after ligation. The method, then:
Test Example 4: Inhibitory Effects against Histamine-Stimulated Gastric Acid Secretion in Pylorus-Ligated Rats The inhibitory effects of the compounds of the present disclosure against histamine-stimulated gastric acid secretion were evaluated using Shay's rat models [Shay H, et al. A simple method for the uniform production of gastric ulceration in the rat, Gastroenterology, 1945, 5, 43-61]. Male Sprague-Dawley (SD) rats (weighing 180-210 g) were divided into X groups (n=7) and fasted with only water access for 24 hours. At 1 hour before pylorus ligation, the control group was administered orally with only 10% DMSO, 10% Cremophor EL and 80% water, and the other groups were administered orally with 2 mg/kg/2 ml of each compound together with 10% DMSO, 10% Cremophor EL and 80% water. The abdominal cavity of each rate was incised under isoflurane anesthesia, and the pylorus was ligated. Immediately after ligation, histamine 2HCl was administered subcutaneously to each rat at a dose of 30 mg/kg/10 ml. At 3 hours after ligation, the test animals were euthanized, and the gastric content was extracted. The extracted gastric content was centrifuged at 3,000×g for 10 minutes, and the supernatant was collected to obtain gastric juice. Next, the acidity of the gastric juice was determined based on the volume of (ueq/ml) of 0.1 N—NaOH required for automatic titration of the gastric juice to pH 7.0, and the acidity of the gastric juice was multiplied by the amount of the gastric juice to determine total acid output. Percent (%) inhibitory activity of test compounds={(total acid output in control group−total acid output in group treated with test compound)/total acid output in control group}×100.

T1 sequence (P19156 2-1034 limits assumed): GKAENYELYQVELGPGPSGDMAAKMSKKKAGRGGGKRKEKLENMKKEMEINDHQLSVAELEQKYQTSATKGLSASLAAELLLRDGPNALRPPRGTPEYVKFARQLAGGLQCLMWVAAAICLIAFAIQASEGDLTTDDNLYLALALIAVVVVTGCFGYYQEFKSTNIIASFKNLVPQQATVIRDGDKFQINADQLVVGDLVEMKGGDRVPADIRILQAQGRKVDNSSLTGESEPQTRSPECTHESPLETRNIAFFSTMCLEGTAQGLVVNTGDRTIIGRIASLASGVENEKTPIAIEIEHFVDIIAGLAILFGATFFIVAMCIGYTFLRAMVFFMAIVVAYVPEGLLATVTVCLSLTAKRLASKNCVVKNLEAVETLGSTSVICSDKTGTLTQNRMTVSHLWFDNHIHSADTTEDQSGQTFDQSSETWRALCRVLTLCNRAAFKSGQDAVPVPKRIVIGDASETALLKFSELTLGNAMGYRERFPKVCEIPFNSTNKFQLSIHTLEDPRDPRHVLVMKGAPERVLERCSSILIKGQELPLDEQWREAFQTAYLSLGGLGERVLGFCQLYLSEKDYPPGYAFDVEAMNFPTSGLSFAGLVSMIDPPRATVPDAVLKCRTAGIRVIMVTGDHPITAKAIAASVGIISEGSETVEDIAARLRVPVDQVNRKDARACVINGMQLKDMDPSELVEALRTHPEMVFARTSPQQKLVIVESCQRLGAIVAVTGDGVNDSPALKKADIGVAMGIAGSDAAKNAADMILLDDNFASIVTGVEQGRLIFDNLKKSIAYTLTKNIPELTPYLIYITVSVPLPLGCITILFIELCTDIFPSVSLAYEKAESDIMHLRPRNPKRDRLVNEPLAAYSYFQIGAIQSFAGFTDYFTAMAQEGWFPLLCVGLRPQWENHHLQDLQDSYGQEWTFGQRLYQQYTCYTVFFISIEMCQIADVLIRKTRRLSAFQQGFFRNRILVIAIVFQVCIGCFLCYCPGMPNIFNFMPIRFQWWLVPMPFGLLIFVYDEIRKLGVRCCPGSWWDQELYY
T1 sequence (P18434 whole entry partner): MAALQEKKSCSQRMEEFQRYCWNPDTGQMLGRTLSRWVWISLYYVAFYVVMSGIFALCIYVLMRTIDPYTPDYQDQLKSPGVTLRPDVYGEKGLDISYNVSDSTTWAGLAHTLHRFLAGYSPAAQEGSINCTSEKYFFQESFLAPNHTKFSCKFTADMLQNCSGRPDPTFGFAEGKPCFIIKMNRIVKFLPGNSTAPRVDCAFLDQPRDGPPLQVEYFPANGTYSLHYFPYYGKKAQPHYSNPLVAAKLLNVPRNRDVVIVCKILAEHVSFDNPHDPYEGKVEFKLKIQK

Take `Cc1cc(F)ccc1CNc1cc(C(=O)N2CC(CO)C2)cn2c(C)c(C)nc12` [Example 33, {8-[(4-fluoro-2-methylbenzyl)amino]-2,3-dimethylimidazo[1,2-α]pyridin-6-yl}(3-(hydroxymethyl)azetidin-1-yl)methanone]: the inhibition in vivo at 2 mg/kg in assay [1] was 92.7%. Moreover, the IC50 in assay [2] came to 143 nM.

On to `Cc1cccc(C)c1CNc1cc(C(=O)N2CC(C)C2)cn2c(C)c(C)nc12` [Example 8, {8-[(2,6-dimethylbenzyl)amino]-2,3-dimethylimidazo[1,2-α]pyridin-6-yl}(3-methylazetidin-1-yl)methanone], for which the inhibition in vivo at 2 mg/kg in assay [1] came to 95.4%. Moreover, the IC50 in assay [2] is 96 nM.

Take `Cc1cccc(C)c1CNc1cc(C(=O)N2CC(F)C2)cn2c(C)c(C)nc12` [Example 7, {8-[(2,6-dimethylbenzyl)amino]-2,3-dimethylimidazo[1,2-a]pyridin-6-yl}(3-fluoroazetidin-1-yl)methanone]: the inhibition in vivo at 2 mg/kg in assay [1] turned out to be 100%. The “acid output (rat/2 mpk)” value in assay [3] is listed as 91%. The IC50 in assay [2] was 55 nM.

In the case of `Cc1cccc(C)c1CNc1cc(C(=O)N2CC(C)(O)C2)cn2c(C)c(C)nc12` [Example 9, {8-[(2,6-dimethylbenzyl)amino]-2,3-dimethylimidazo[1,2-α]pyridin-6-yl}(3-hydroxy-3-methylazetidin-1-yl)methanone], the inhibition in vivo at 2 mg/kg in assay [1] came out at 77.2%. For the same molecule, in assay [2], the IC50 was found to be 69 nM.

As for `Cc1cc(F)cc(C)c1CNc1cc(C(=O)N2CC(CO)C2)cn2c(C)c(C)nc12` [Example 39, {8-[(4-fluoro-2,6-dimethylbenzyl)amino]-2,3-dimethylimidazo[1,2-α]pyridin-6-yl}[3-(hydroxymethyl)azetidin-1-yl]methanone], in assay [1], the inhibition in vivo at 2 mg/kg came out at 98.4%. Further, the IC50 in assay [2] was determined as 24 nM.

Take `Cc1cc(F)cc(C)c1CNc1cc(C(=O)N2CC(F)C2)cn2c(C)c(C)nc12` [Example 36, {8-[(4-fluoro-2,6-dimethylbenzyl)amino]-2,3-dimethylimidazo[1,2-α]pyridin-6-yl}(3-fluoroazetidin-1-yl)methanone]: in assay [1], the inhibition in vivo at 2 mg/kg was determined as 98.2%. Besides, the IC50 in assay [2] turned out to be 29 nM.

Take `Cc1cccc(C)c1CNc1cc(C(=O)N2CC(O)C2)cn2c(C)c(C)nc12` [Example 1, {8-[(2,6-Dimethylbenzyl)amino]-2,3-dimethylimidazo[1,2-α]pyridin-6-yl}(3-hydroxyazetidin-1-yl)methanone]: the inhibition in vivo at 2 mg/kg in assay [1] stood at 84%. Moreover, the “acid output (rat/2 mpk)” value in assay [3] turned out to be 71%. Further, in assay [2], the IC50 came to 20 nM.

On to `Cc1cccc(C)c1CNc1cc(C(=O)N2CCC2)cn2c(C)c(C)nc12` [Example 6, azetidin-1-yl{8-[(2,6-dimethylbenzyl)amino]-2,3-dimethylimidazo[1,2-α]pyridin-6-yl}methanone], for which the inhibition in vivo at 2 mg/kg in assay [1] worked out at 100%. Also, the “acid output (rat/2 mpk)” value in assay [3] is given as 94%. Also, the IC50 in assay [2] worked out at 17 nM.

For the molecule `Cc1cccc(C)c1CNc1cc(C(=O)N2CC(C)(CO)C2)cn2c(C)c(C)nc12` [Example 14, {8-[(2,6-dimethylbenzyl)amino]-2,3-dimethylimidazo[1,2-α]pyridin-6-yl}[3-(hydroxymethyl)-3-methylazetidin-1-yl]methanone], the IC50 in assay [2] was 104 nM.

Regarding `Cc1cc(F)cc(C)c1CNc1cc(C(=O)N2CC(O)C2)cn2c(C)c(C)nc12` [Example 34, {8-[(4-fluoro-2,6-dimethylbenzyl)amino]-2,3-dimethylimidazo[1,2-α]pyridin-6-yl}(3-hydroxyazetidin-1-yl)methanone], the inhibition in vivo at 2 mg/kg in assay [1] amounted to 91.4%. For the same molecule, in assay [2], the IC50 turned out to be 28 nM.

Take `Cc1cc(F)ccc1CNc1cc(C(=O)N2CC(C)(O)C2)cn2c(C)c(C)nc12` [Example 31, {8-[(4-fluoro-2-methylbenzyl)amino]-2,3-dimethylimidazo[1,2-α]pyridin-6-yl}(3-hydroxy-3-methylazetidine-1-yl)methanone]: the IC50 in assay [2] turned out to be 662 nM.

As to `COC(=O)C1CN(C(=O)c2cc(NCc3c(C)cccc3C)c3nc(C)c(C)n3c2)C1` [Example 10, methyl 1-{8-[(2,6-dimethylbenzyl)amino]-2,3-dimethylimidazo[1,2-α]pyridine-6-carbonyl}azetidine-3-carboxylate], the IC50 in assay [2] is 48 nM.

As to `COCC1CN(C(=O)c2cc(NCc3c(C)cc(F)cc3C)c3nc(C)c(C)n3c2)C1` [Example 40, {8-[(4-fluoro-2,6-dimethylbenzyl)amino]-2,3-dimethylimidazo[1,2-α]pyridin-6-yl}[3-(methoxymethyl)azetidin-1-yl]methanone], the IC50 in assay [2] was 134 nM.

For the molecule `Cc1ccccc1CNc1cc(C(=O)N2CC(O)C2)cn2c(C)c(C)nc12` [Example 23, {2,3-dimethyl-8-[(2-methylbenzyl)amino]imidazo[1,2-α]pyridin-6-yl}(3-hydroxyazetidin-1-yl)methanone], the IC50 in assay [2] turned out to be 374 nM.

As to `Cc1ccc(Cl)c(C)c1CNc1cc(C(=O)N2CC(O)C2)cn2c(C)c(C)nc12` [Example 46], the IC50 in assay [2] amounted to 163 nM.

For `Cc1cccc(C)c1CNc1cc(C(=O)N2CC(CCO)C2)cn2c(C)c(C)nc12` [Example 20, {8-[(2,6-dimethylbenzyl)amino]-2,3-dimethylimidazo[1,2-α]pyridin-6-yl}[3-(2-hydroxyethyl)azetidin-1-yl]methanone], in assay [2], the IC50 turned out to be 46 nM.

As to `Cc1cccc(C)c1CNc1cc(C(=O)N2CC(CO)C2)cn2c(C)c(C)nc12` [Example 11, {8-[(2,6-dimethylbenzyl)amino]-2,3-dimethylimidazo[1,2-α]pyridin-6-yl}[3-(hydroxymethyl)azetidin-1-yl]methanone], the inhibition in vivo at 2 mg/kg in assay [1] stood at 97.6%. In assay [3], the “acid output (rat/2 mpk)” value is given as 78%. Moreover, the IC50 in assay [2] was 39 nM.

Values taken from patent US10696671B2, “Imidazo[1,2-A]pyridine derivatives, methods for preparing the same and use thereof” (Jeil Pharmaceutical Co., Ltd., priority 2016, dated 2020).
